The source of these data is publication PMC4848734, “Purification and Characterization of a Novel Intracellular Sucrase Enzyme of Leishmania donovani Promastigotes” (Biochemistry Research International, 2016).

In test [1] the test system is T1, intracellular sucrase.
T1 construct: native purification from promastigote cell-free extract; ~56 kDa subunit (SDS-PAGE), ~112 kDa native, proposed homodimer; gene not identified
The test is described as follows: colorimetric glucose release ([…] nm), Lineweaver-Burk. The following applies: 50 mM sodium acetate, pH 6.0, 30°C, 30 min; 0.4-5.0 mM sucrose; purified enzyme. It counts as biochemical, Leishmania donovani.

The target of test [2] is intracellular sucrase of Leishmania donovani promastigotes (Leishmania donovani (endogenous in promastigotes, strain MOHM/IN/1978/UR6)). The test is described as follows: SEC; Sephacryl S-200 column (120 x 1 cm), Buffer A (50 mM Tris-HCl, pH 7.4), 22 mL/hr; ammonium sulfate fraction of cell-free extract, sucrase followed by activity; native size from calibration graph compared with the subunit size in 10% SDS-PAGE. In general terms: In gel filtration, larger molecules generally elute earlier.

As to `OC[C@H]1O[C@@](CO)(O[C@H]2O[C@H](CO)[C@@H](O)[C@H](O)[C@H]2O)[C@@H](O)[C@@H]1O` [sucrose], in test [1], the Km (usually the substrate concentration at which the rate is half of its maximum) worked out at 1610 µM.
On to “intracellular sucrase of Leishmania donovani promastigotes (enzyme)”, for which, in test [2], the stoichiometry N (commonly the number of molecules, sites or subunits per partner or assembly) is 2.
